Assay results published in patent US20050153870A1, “Medicinal composition for diagnosis, prevention, or therapy of multiple risk factor syndrome” (priority 2002, published 2005).

Key:
[1] = system: hypercholesterolemia patients; assay: Clinical test I; assay type: in vivo, human; conditions: for Fasting blood sugar (FBS) level: 5 patients with high blood sugar
Description: The participants consisted of 9 Caucasian males and 7 Caucasian females. They participated in Clinical test I on a voluntary basis after they signed informed consent for clinical test participation, which was proposed by a medical institution based on the Helsinki declaration.
Their ages were 55 years old in average and ranging from 40 to 82 years old. Their average body weigh was 70.2±13.57 kg (standard deviation).
All participants took dietary therapy for treating hypercholesterolemia. Since various medicaments were administered, the period of 8 weeks, prior to Clinical test I, was provided to stop taking all pills, thereby washing out effects of medicaments. During the period of the Clinical test I, it was not allowed to take any other medicament together with a test medicament. Patients with type II diabetes were excluded from the participants; however, 5 patients with a high blood sugar level were included in the participants. Since they were not diagnosed as diabetes, they were allowed to participate in the test. Of 16 participants, 10 patients had hypertension and 4 patients had borderline hypertension defined by WHO. Only 2 patients had normal blood pressure.

Rabbit = assay: Arteriosclerosis suppressing effect, rabbit on hyperfat feed; assay type: in vivo; conditions: 0.2 to 0.05% mixed to hyperfat feed
Description: As to prevention/therapy of arteriosclerosis, a big difference is observed in effect between medicaments conceivably effective in improving arteriosclerosis, such as fibrate series medicament, thiazolidine series medicament, probucol, and statin series medicament and a compound of the present invention.

[2] = Borderline hypertensive group, 4 patients, 10th week, Placebo period after 8 weeks of medication
[3] = Borderline hypertensive group, 4 patients, 12th week, Placebo period after 8 weeks of medication
[4] = Hypertension group, 10 patients, 10th week, Placebo period after 8 weeks of medication
[5] = Hypertension group, 10 patients, 12th week, Placebo period after 8 weeks of medication

Structure (SMILES): COc1c(Cl)c(C)c(C=O)c(O)c1C/C=C(C)/C=C/[C@@]1(C)[C@H](C)CCC(=O)[C@@H]1C [4-O-methylascochlorin]
- normal blood pressure ([1]; 2 patients of normal blood pressure): does not affect normal blood pressure
- blood sugar levels ([1]; 5 cases exhibiting high blood sugar): brought back to normal levels
- Fasting blood sugar (FBS) level ([1]; 1st week, 0.5 mg/kg, before medication 132.4 ± 16.0): 100.0 ± 11.0 mg/dL
- Fasting blood sugar (FBS) level ([1]; 2nd week, 1.0 mg/kg, before medication 132.4 ± 16.0): 102.0 ± 4.0 mg/dL
- Fasting blood sugar (FBS) level ([1]; 3rd week, 2.0 mg/kg, before medication 132.4 ± 16.0): 103.6 ± 12.1 mg/dL
- Fasting blood sugar (FBS) level ([1]; 4th week, 4.0 mg/kg, before medication 132.4 ± 16.0): 103.2 ± 11.7 mg/dL
- Fasting blood sugar (FBS) level ([1]; 6th week, 8.0 mg/kg, before medication 132.4 ± 16.0): 98.0 ± 4.6 mg/dL
- Fasting blood sugar (FBS) level ([1]; 8th week, 16.0 mg/kg, before medication 132.4 ± 16.0): 93.3 ± 6.1 mg/dL
- Fasting blood sugar (FBS) level ([1]; 10th week, Placebo period after 8 weeks of medication): 93.5 ± 6.4 mg/dL
- Fasting blood sugar (FBS) level ([1]; 12th week, Placebo period after 8 weeks of medication): 100.5 ± 11.6 mg/dL
- Blood sugar level ([1]; 5 patients, 6th week, 8 mg/kg): completely returns to a normal level
- Total serum cholesterol ([1]; 6th week, 16 folds the amount of 0.5 mg/kg): decreased to the upper limit of the normal range
- decrease of body weight compared to before medication ([1]; 8 weeks after the initiation of medication, P<0.001): 0.9 kg
- blood pressure of the systolic period and the diastolic period ([1]; 10 hypertensive patients, 8th week): decreased both pressure values to normal levels
- lowering of serum total cholesterol by medication ([1]; 16 hypercholesterolemia patients): ≥ 30%
- Total serum cholesterol ([1]; 16 hypercholesterolemia patients, 1st week, 0.5 mg/kg, before medication 342.0 ± 61.0): 272.6 ± 62.7 mg/dL
- Total serum cholesterol ([1]; 16 hypercholesterolemia patients, 2nd week, 1.0 mg/kg, before medication 342.0 ± 61.0): 266.5 ± 66.7 mg/dL
- Total serum cholesterol ([1]; 16 hypercholesterolemia patients, 3rd week, 2.0 mg/kg, before medication 342.0 ± 61.0): 268.7 ± 66.0 mg/dL
- Total serum cholesterol ([1]; 16 hypercholesterolemia patients, 4th week, 4.0 mg/kg, before medication 342.0 ± 61.0): 254.2 ± 65.7 mg/dL
- Total serum cholesterol ([1]; 16 hypercholesterolemia patients, 6th week, 8.0 mg/kg, before medication 342.0 ± 61.0): 217.4 ± 58.8 mg/dL
- Total serum cholesterol ([1]; 16 hypercholesterolemia patients, 8th week, 16.0 mg/kg, before medication 342.0 ± 61.0): 229.5 ± 61.9 mg/dL
- Total serum cholesterol ([1]; 16 hypercholesterolemia patients, 10th week, Placebo period after 8 weeks of medication): 255.9 ± 57.6 mg/dL
- Total serum cholesterol ([1]; 16 hypercholesterolemia patients, 12th week, Placebo period after 8 weeks of medication): 264.0 ± 57.5 mg/dL
- abnormality in the serum biological test, hematocyte test, and urine test ([1]; 16 patients, 12 weeks): No abnormality ascribed to medication
- side effect ([1]; 16 patients, 12 weeks, 0.5 to 16.0 mg/kg, not so severe, medication continued): one case with light eruption and one case with dizziness
- Diastolic pressure ([1]; Borderline hypertensive group, 4 patients, 1st week, 0.5 mg/kg, before medication 87.1 ± 2.7): 82.1 ± 3.9 mmHg
- Systolic pressure ([1]; Borderline hypertensive group, 4 patients, 1st week, 0.5 mg/kg, before medication 149.3 ± 7.9): 133.6 ± 9.0 mmHg
- Diastolic pressure ([1]; Borderline hypertensive group, 4 patients, 2nd week, 1.0 mg/kg, before medication 87.1 ± 2.7): 81.4 ± 4.8 mmHg
- Systolic pressure ([1]; Borderline hypertensive group, 4 patients, 2nd week, 1.0 mg/kg, before medication 149.3 ± 7.9): 134.3 ± 6.7 mmHg
- Diastolic pressure ([1]; Borderline hypertensive group, 4 patients, 3rd week, 2.0 mg/kg, before medication 87.1 ± 2.7): 81.4 ± 2.4 mmHg
- Systolic pressure ([1]; Borderline hypertensive group, 4 patients, 3rd week, 2.0 mg/kg, before medication 149.3 ± 7.9): 134.3 ± 9.3 mmHg
- Diastolic pressure ([1]; Borderline hypertensive group, 4 patients, 4th week, 4.0 mg/kg, before medication 87.1 ± 2.7): 80.7 ± 3.5 mmHg
- Systolic pressure ([1]; Borderline hypertensive group, 4 patients, 4th week, 4.0 mg/kg, before medication 149.3 ± 7.9): 130.7 ± 8.9 mmHg
- Diastolic pressure ([1]; Borderline hypertensive group, 4 patients, 6th week, 8.0 mg/kg, before medication 87.1 ± 2.7): 78.6 ± 3.8 mmHg
- Systolic pressure ([1]; Borderline hypertensive group, 4 patients, 6th week, 8.0 mg/kg, before medication 149.3 ± 7.9): 130.7 ± 8.9 mmHg
- Diastolic pressure ([1]; Borderline hypertensive group, 4 patients, 8th week, 16.0 mg/kg, before medication 87.1 ± 2.7): 77.9 ± 3.9 mmHg
- Systolic pressure ([1]; Borderline hypertensive group, 4 patients, 8th week, 16.0 mg/kg, before medication 149.3 ± 7.9): 130.0 ± 8.2 mmHg
- Diastolic pressure [1, 2]: 78.6 ± 4.8 mmHg
- Systolic pressure [1, 2]: 130.7 ± 9.3 mmHg
- Diastolic pressure [1, 3]: 78.6 ± 4.8 mmHg
- Systolic pressure [1, 3]: 132.1 ± 10.4 mmHg
- Diastolic pressure ([1]; Hypertension group, 10 patients, 1st week, 0.5 mg/kg, before medication 91.0 ± 7.7): 83.5 ± 4.7 mmHg
- Systolic pressure ([1]; Hypertension group, 10 patients, 1st week, 0.5 mg/kg, before medication 161.5 ± 21.1): 143.5 ± 28.5 mmHg
- Diastolic pressure ([1]; Hypertension group, 10 patients, 2nd week, 1.0 mg/kg, before medication 91.0 ± 7.7): 83.0 ± 5.4 mmHg
- Systolic pressure ([1]; Hypertension group, 10 patients, 2nd week, 1.0 mg/kg, before medication 161.5 ± 21.1): 147.5 ± 28.5 mmHg
- Diastolic pressure ([1]; Hypertension group, 10 patients, 3rd week, 2.0 mg/kg, before medication 91.0 ± 7.7): 84.5 ± 6.0 mmHg
- Systolic pressure ([1]; Hypertension group, 10 patients, 3rd week, 2.0 mg/kg, before medication 161.5 ± 21.1): 147.5 ± 26.1 mmHg
- Diastolic pressure ([1]; Hypertension group, 10 patients, 4th week, 4.0 mg/kg, before medication 91.0 ± 7.7): 85.5 ± 9.44 mmHg
- Systolic pressure ([1]; Hypertension group, 10 patients, 4th week, 4.0 mg/kg, before medication 161.5 ± 21.1): 148.5 ± 26.8 mmHg
- Diastolic pressure ([1]; Hypertension group, 10 patients, 6th week, 8.0 mg/kg, before medication 91.0 ± 7.7): 83.5 ± 9.44 mmHg
- Systolic pressure ([1]; Hypertension group, 10 patients, 6th week, 8.0 mg/kg, before medication 161.5 ± 21.1): 144.5 ± 29.8 mmHg
- Diastolic pressure ([1]; Hypertension group, 10 patients, 8th week, 16.0 mg/kg, before medication 91.0 ± 7.7): 78.1 ± 3.7 mmHg
- Systolic pressure ([1]; Hypertension group, 10 patients, 8th week, 16.0 mg/kg, before medication 161.5 ± 21.1): 130.0 ± 7.6 mmHg
- Diastolic pressure [1, 4]: 83.5 ± 8.8 mmHg
- Systolic pressure [1, 4]: 145.5 ± 26.3 mmHg
- Diastolic pressure [1, 5]: 84.0 ± 9.7 mmHg
- Systolic pressure [1, 5]: 151.5 ± 32.4 mmHg
- blood pressure of the hypertension group and borderline hypertension group ([1]; medication for 8 weeks): dropped to the upper limit of a normal range
- drop of total serum cholesterol, average ([1]; one week after 0.5 mg/kg perorally): 70 mg/dL
- Serum neutral fat ([1]; ratio of serum neutral fat/serum total cholesterol 1.2 or less (hyperlipemia type IIa)): significantly decreased
- Serum neutral fat ([1]; ratio of serum neutral fat/serum total cholesterol 1.2 or more (hyperlipemia type IIb and type IV)): a significant decrease of serum neutral fat was not observed
- death from circulatory failure (Rabbit): infarction derived from arteriosclerosis of the arteria coronaria and suppressing death
